# Laboratory results from publication PMC10638401, “Mannich-type modifications of (−)-cannabidiol and (−)-cannabigerol leading to new, bioactive derivatives” (Scientific Reports, 2023).
# Like-named read-outs stand apart in the source and are kept apart here.
# How the values were obtained:
# MCF7 cells = experiment: Antiproliferative MTT assay, 72 h; format: cell-based, human; settings: for inhibition of the proliferation: MCF7, 30 μM; for antiproliferative activity (in words): MCF7, 10 and 30 μM
# Text: (§1) Human adherent cancer cell lines A2780, MDA-MB-231 and MCF-7 were obtained from ECACC (European Collection of Cell Cultures, Salisbury, UK; Cat. No.93112519, 92020424, 86012803, respectively). SiHa cell line was obtained from ATCC (American Tissue Culture Collection, Manassas, Virginia, USA; Cat. No. HTB-35). All cell lines used for antiproliferative assay were maintained in Eagle's Minimum Essential Medium (EMEM) completed with 10% fetal bovine serum (FBS), 1% non-essential amino acid solution, and 1% penicillin, streptomycin, and amphotericin B mixture under cell culture conditions described before. All the utilized media and supplements were purchased from Lonza Group Ltd. (Basel, Switzerland).
# (§2) The antiproliferative actions of the prepared molecules were determined by the same assay against a panel of adherent human cancer cell lines containing cervical (SiHa), ovarian (A2780) and breast (MCF7, MDA-MB-231) cell lines. Cells were plated onto 96-well microplates (5000 cells/well) and after an overnight incubation treated with two concentrations (10 or 30 μM) of the test substances for 72 h under cell culture conditions. Subsequently, MTT (5 mg/ml in phosphate buffer) was added to the wells, followed by incubation for 4 h. The supernatant was removed, the formazan crystals were then dissolved in 100 µl DMSO. Finally, absorbance values were determined by a microplate reader (BMG Labtech, Ortenberg, Germany) at 545 nm. Two independent measurements were performed with five parallel wells. Results were expressed as percentage of cell proliferation inhibition compared to non-treated control samples regarded as 0%.
# SARS-CoV-2 [1] = experiment: SARS-CoV-2 cytopathic effect (CPE) inhibition assay in Vero E6 cells (XTT); format: cell-based; settings: for EC50: Severe acute respiratory syndrome coronavirus 2, Vero C1008, 72 h, Vero E6 cells, 3 days post-infection, XTT; for IC50: Severe acute respiratory syndrome coronavirus 2, Vero C1008, read-out: IC50 (anti-SARS-CoV-2 activity, Figure 8)
# Protocol: (§3) CBD and CBG derivatives were further tested for their ability to inhibit SARS-CoV-2 replication in Vero E6 cells. Initially, the inhibition of virus-induced cytopathic effect was measured by addition of twofold serial dilutions of each derivative to the cells, followed by the infection with SARS-CoV-2 and determination of the cell viability 3 days post-infection by XTT assay. Concurrently, the cytotoxicity of each compound was assessed from identical dilutions in uninfected Vero E6 cells. To confirm anti-SARS-CoV-2 activity in the CPE inhibition assay, selected compounds were tested in immunofluorescence assay, where inhibition of SARS-CoV-2 replication was monitored as reduction in nucleoprotein expression using fluorescence microscope. […] Among the CBG derivatives, we can find quite cytotoxic and non-cytotoxic derivatives as well.
# (§4) For CPE-based assay, two-fold fold serial dilutions of compounds from 100 µM were added in triplicate in a 384-well plate with 5000 Vero E6 cells in DMEM medium with 2% FBS, 100 U of penicillin/ml and 100 µg of streptomycin/ml (all Merck). After 1 h incubation SARS-CoV-2 (strain hCoV-19/Czech Republic/NRL_6632_2/2020) was added at multiplicity of infection […]. Following three days incubation at 37 °C in 5% CO2 the cell viability was determined by addition of XTT solution (Sigma-Aldrich) for 4 h and the absorbance was measured using EnVision plate reader (Perkin Elmer). Drug concentrations required to reduce viral cytopathic effect by 50% (EC50) were calculated using nonlinear regression from plots of percentage cell viability versus log10 drug concentration using GraphPad Prism (version 9.0.0, GraphPad Software, LLC). For immunofluorescence assay, two-fold fold serial dilutions of compounds from 100 µM were added in triplicate in 96-well plate with 15,000 Vero E6 cells plated day before in the same medium as above. After 1 h incubation, SARS-CoV-2 was added at multiplicity of infection 0.05 IU/cell. After three days of incubation, cells were fixed with 4% paraformaldehyde, permeabilized with 0.2% Triton X100 (both Merck), washed, incubated with anti-SARS-CoV-2antibody (mouse monoclonal antibody detecting SARS-CoV-2 nucleoprotein) for 2 h at room temperature. Followed by 1.5 h incubation with Cy3-labeled donkey anti-mouse IgG (Jackson ImmunoResearch Europe) and documented using fluorescence microscope with camera (Olympus). Images were processed in ImageJ software (NIH) and compound concentrations required to reduce fluorescence by 50% (EC50s) were calculated from plots of percentage of fluorescent cells versus log10 drug concentration using nonlinear regression analysis as above. Cytotoxicity was evaluated by incubating with the same two-fold serial dilutions of each compound as above with Vero E6 cells in 384-well plate.
# SARS-CoV-2 [2] = experiment: SARS-CoV-2 immunofluorescence assay (nucleoprotein expression) in Vero E6 cells; format: cell-based; settings: Severe acute respiratory syndrome coronavirus 2, Vero C1008, 72 h, three days
# Protocol: as §3, §4
# in vitro = settings: African green monkey
# Bacillus subtilis = experiment: MIC, broth micro dilution
# Protocol: (§5) According to CLSI guideline the Minimal Inhibitory Concentrations (MICs) of the prepared compounds were determined with the broth micro dilution method. After an overnight growth on 5% bovine blood agar plates at 35 °C bacterial strains were suspended in physiological saline in order to reach the density of 0.5 McFarland for inoculation. Stock solutions containing different concentrations of the substances were prepared in DMSO and H2O (1:1). These were twofold serially diluted from 256 to 0.5 mg/l in Mueller–Hinton broth, and 100 ml of each dilution was inoculated with 10 ml of each bacterial suspension.
# [3] = test system: MSSA (Methicillin Sensitive Staphylococcus aureus); experiment: MIC, broth micro dilution
# Protocol: as §5
# [4] = test system: MRSA (Methicillin Resistant Staphylococcus aureus); experiment: MIC, broth micro dilution
# Protocol: as §5
# [5] = test system: Staphylococcus epidermidis biofilm forming; experiment: MIC, broth micro dilution
# Protocol: as §5
# [6] = test system: Staphylococcus epidermidis mecA; experiment: MIC, broth micro dilution
# Protocol: as §5
# [7] = test system: Enterococcus faecalis 29 212; experiment: MIC, broth micro dilution
# Protocol: as §5
# [8] = test system: Enterococcus faecalis 15 376 VanA; experiment: MIC, broth micro dilution
# Protocol: as §5
# [9] = test system: Enterococcus faecalis 51299 VanB; experiment: MIC, broth micro dilution
# Protocol: as §5
# A2780 cells = experiment: Antiproliferative MTT assay, 72 h; format: cell-based, human; settings: for antiproliferative activity (in words): A2780, 10 and 30 μM
# Text: as §1, §2
# MDA-MB-231 cells = experiment: Antiproliferative MTT assay, 72 h; format: cell-based, human; settings: for antiproliferative activity (in words): MDA-MB-231, 10 and 30 μM
# Text: as §1, §2
# SiHa cells = experiment: Antiproliferative MTT assay, 72 h; format: cell-based, human; settings: for antiproliferative activity (in words): 10 and 30 μM
# Text: as §1, §2
# [10] = Enterococcus faecalis, 15376VANA
# [11] = Enterococcus faecalis, 51299VANB
Compound,EC50 (SARS-CoV-2 [1]),IC50 (SARS-CoV-2 [1]),EC50 (SARS-CoV-2 [2]),CC50 (in vitro),MIC (Bacillus subtilis),MIC ([3]; Staphylococcus aureus),MIC ([4]; Staphylococcus aureus),MIC ([5]; Staphylococcus epidermidis),MIC ([6]; Staphylococcus epidermidis),"MIC ([7]; Enterococcus faecalis, 29212)","MIC [8, 10]","MIC [9, 11]",antiproliferative activity (in words) (A2780 cells),antiproliferative activity (in words) (MCF7 cells),antiproliferative activity (in words) (MDA-MB-231 cells),antiproliferative activity (in words) (SiHa cells),also measured
C=C(C)[C@@H]1CCC(C)=C[C@H]1c1c(O)cc(CCCCC)c2c1OCN(Cc1ccccc1)C2 [Compound 10],9 ± 0.51 µM,9 µM,~42 µM,> 100 µM,> 256 µg/mL,> 256 µg/mL,> 256 µg/mL,> 256 µg/mL,> 256 µg/mL,> 256 µg/mL,> 256 µg/mL,> 256 µg/mL,,,,,inhibition of the proliferation (MCF7 cells): considerable growth inhibition
CCCCCc1cc(O)c(C/C=C(\C)CCC=C(C)C)c2c1CN(Cc1ccccc1)CO2 [Compound 17a],> 100 µM,> 100 µM,,> 100 µM,> 256 µg/mL,> 256 µg/mL,> 256 µg/mL,> 256 µg/mL,> 256 µg/mL,64 µg/mL,> 256 µg/mL,64 µg/mL,,,,,
C=C(C)[C@@H]1CCC(C)=C[C@H]1c1c(O)c(CN(CC)CC)c(CCCCC)c(CN(CC)CC)c1O [Compound 13],> 12 µM,> 12 µM,,12 ± 0.28 µM,> 256 µg/mL,> 256 µg/mL,> 256 µg/mL,> 256 µg/mL,> 256 µg/mL,> 256 µg/mL,> 256 µg/mL,> 256 µg/mL,,,,,"inhibition of the proliferation (in words) (A2780 cells; A2780, 10 μM): no relevant action; inhibition of the proliferation (A2780 cells; A2780, 30 μM): similarly effective than CBD; inhibition of the proliferation (in words) (MCF7 cells; MCF7, 10 μM): no relevant action; inhibition of the proliferation (MCF7 cells): similarly effective than CBD; inhibition of the proliferation (in words) (MDA-MB-231 cells; MDA-MB-231, 10 μM): no relevant action; inhibition of the proliferation (MDA-MB-231 cells; MDA-MB-231, 30 μM): similarly effective than CBD; inhibition of the proliferation (in words) (SiHa cells; 10 μM): no relevant action; inhibition of the proliferation (SiHa cells; 30 μM): similarly effective than CBD"
CCCCCc1cc(O)c(C/C=C(\C)CCC=C(C)C)c2c1CN(CCCC(=O)O)CO2 [Compound 20],> 100 µM,> 100 µM,,> 100 µM,> 256 µg/mL,> 256 µg/mL,> 256 µg/mL,> 256 µg/mL,> 256 µg/mL,64 µg/mL,128 µg/mL,128 µg/mL,,,,,
C=C(C)[C@@H]1CCC(C)=C[C@H]1c1c(O)cc(CCCCC)c2c1OCN(CCCC)C2.Cl [Compound 8s],,,,,128 µg/mL,,,,,,,,no significant difference was detected,no significant difference was detected,no significant difference was detected,no significant difference was detected,MIC [3]: 128 µg/mL; MIC [4]: 128 µg/mL; MIC ([5]; Staphylococcus epidermidis biofilm forming): 128 µg/mL; MIC ([6]; Staphylococcus epidermidis mecA): 128 µg/mL; MIC ([7]; Enterococcus faecalis 29 212): 2 µg/mL; MIC ([8]; Enterococcus faecalis 15 376 VanA): 128 µg/mL; MIC ([9]; Enterococcus faecalis 51299 VanB): 2 µg/mL
C=C(C)[C@@H]1CCC(C)=C[C@H]1c1c(O)cc(CCCCC)c2c1OCN(CCCC(=O)O)C2 [Compound 12],11 ± 1.2 µM,11 µM,39 ± 1.4 µM,~56 µM,> 256 µg/mL,> 256 µg/mL,> 256 µg/mL,> 256 µg/mL,> 256 µg/mL,> 256 µg/mL,> 256 µg/mL,> 256 µg/mL,"None of the other tested CBD analogs (9, 11, and 12) exhibited substantial antiproliferative activity","None of the other tested CBD analogs (9, 11, and 12) exhibited substantial antiproliferative activity","None of the other tested CBD analogs (9, 11, and 12) exhibited substantial antiproliferative activity","None of the other tested CBD analogs (9, 11, and 12) exhibited substantial antiproliferative activity",
CCCCCc1c2c(c(C/C=C(\C)CCC=C(C)C)c3c1CN(Cc1ccccc1)CO3)OCN(Cc1ccccc1)C2 [Compound 17b],,,,,,,,,,,,,ineffectiveness,ineffectiveness,ineffectiveness,ineffectiveness,
"CCC(CC)COC(=O)[C@H](C)N[P@](=O)(OC[C@H]1O[C@@](C#N)(c2ccc3c(N)ncnn23)[C@H](O)[C@@H]1O)Oc1ccccc1 [Remdesivir, reference compound]",2.8 ± 0.18 µM,,1.2 ± 0.03 µM,> 100 µM,,,,,,,,,,,,,
C=CCN1COc2c(c(CCCCC)c3c(c2C/C=C(\C)CCC=C(C)C)OCN(CC=C)C3)C1 [Compound 19b],,,,,,,,,,,,,more active than CBG,more active than CBG,more active than CBG,more active than CBG,
